Patent US12691070B2, “Cationic lipids and preparation method thereof” (RiboX Therapeutics HK Limited, priority 2023, dated 2026)

Experiments:
[1] = tested on: BALB/C mice; assay: In vivo expression, whole-body luminescence (IVIS)
Description: 6-8 week old, female BALB/C mice were injected with 0.05 mg*kg-1 of RNA-LNPs encoding for firefly-luciferase by intravenous injection. At 6 hours post injection, animals were intraperitoneally injected with 15 mg/ml of Luciferin substrate and whole-body luminescence was determined by a bioluminescent in vivo imaging system (IVIS).

[2] = RNA encapsulation efficacy by Quant-IT Ribogreen kit; format: physicochemical; details: for Encapsulation Efficiency %: LNP with cirRNA (SEQ ID NO: 1); for Encapsulation Efficiency: LNP with mRNA (SEQ ID NO: 2)
Summary of the method: (§1)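 LNPs of ionizable lipid/DSPC/cholesterol/DMG-PEG 2000 (50:10:38.5:1.5) made by microfluidic mixing of luciferase circRNA or mRNA in pH 4.5 acetate with lipids in ethanol (3:1, 12 ml/min), ionizable lipid:nucleotide 15 or 6, then dialyzed against PBS. Size, PDI (DLS) and zeta potential on Zetasizer; encapsulation by Ribogreen ± Triton X-100.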

[3] = tested on: Hep G2 cells; assay: In vitro toxicity (CellTiter-Glo cell viability), Hep G2; format: cell-based;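 note: percent of untreated cells luminescence signal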
Summary of the method: (§2)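 First, cells receive RNA-LNPs at 1 μg/mL by transfection. After 72 hours, CellTiter-Glo reagent is added per kit protocol. Luminescence is then read and converted to cell viability.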

[4] = tested on: MCP-I; assay: MCP-I cytokine elevation in serum; format: in vivo; details: cirRNA (SEQ ID NO: 1) LNPs, mice
Description: 6-8 week old, female BALB/C mice were injected with 0.5 mg*kg-1 of RNA LNPs by intravenous injection. At 2 and 24 hours post injection, animals were bled and sera concentrations of MCP-I were determined by an immunoassay (Luminex).

[5] = tested on: Alanine Aminotransferase (ALT); assay: Liver enzyme elevation in serum, ALT; format: in vivo; details: cirRNA (SEQ ID NO: 1) LNPs, BALB/C mice, intravenous 0.5 MPK
Description: (§3) 6-8 week old, female BALB/C mice were injected with 0.5 mg*kg-1 of RNA LNPs by intravenous injection. At 2 and 24 hours post injection, animals were bled and sera concentrations of Alanine Aminotransferase (ALT) and Aspartate Aminotransferase (AST) were determined by a blood chemistry analyzer.

[6] = tested on: Aspartate Aminotransferase (AST); assay: Liver enzyme elevation in serum, AST; format: in vivo; details: cirRNA (SEQ ID NO: 1) LNPs, BALB/C mice, intravenous 0.5 MPK
Description: as §3

[7] = tested on: Hep G2 cells; assay: In vitro expression of firefly-luciferase, Hep G2; format: cell-based
Summary of the method: (§4)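 Cells were transfected with firefly-luciferase-encoding RNA-LNPs at 100 ng/mL. After 72 hours they were washed and lysed, and luciferase activity in the lysates was read by luminometry.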

[8] = tested on: RAW 264.7 cells; assay: In vitro expression of firefly-luciferase, RAW 264.7; format: cell-based
Summary of the method: as §4

[9] = tested on: RAW 264.7 cells; assay: In vitro toxicity (CellTiter-Glo cell viability), RAW 264.7; format: cell-based;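 note: percent of untreated cells luminescence signal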
Summary of the method: as §2

[10] = LNP size and polydispersity index (PDI) by dynamic light scattering; format: physicochemical; details: for Size: in nm (unit assumed)
Summary of the method: as §1

[11] = tested on: BALB/C mice; assay: Local tolerance determination by footpad injection; format: in vivo; details: cirRNA (SEQ ID NO: 1) LNP, 0.175 mg*kg-1 subcutaneous into the footpad, 24 hours post minus prior
Description: 6-8 week old, female BALB/C mice were injected with 0.175 mg*kg-1 RNA LNPs by subcutaneous injection into the footpad. Prior to, and 24 hours post injections, injected footpad thickness was determined by a caliper.

[12] = LNP zeta potential (Zetasizer); format: physicochemical
Summary of the method: as §1

[13] = cirRNA (SEQ ID NO: 1) LNPs, BALB/C mice
[14] = mRNA (SEQ ID NO: 2) LNP, 0.05 mg*kg-1 intravenous, 6 hours post injection
[15] = cirRNA (SEQ ID NO: 1) LNPs, Hep G2 cells
[16] = mRNA (SEQ ID NO: 2) LNP, 1 μg/mL, 72 hours post transfection
[17] = cirRNA (SEQ ID NO: 1) LNPs, firefly-luciferase luminescence, Hep G2 cells
[18] = mRNA (SEQ ID NO: 2) LNP, 100 ng/mL, 72 hours post transfection, luciferase activity
[19] = cirRNA (SEQ ID NO: 1) LNPs, firefly-luciferase luminescence, RAW 264.7 cells
[20] = cirRNA (SEQ ID NO: 1) LNPs, RAW 264.7 cells

Compound	In vivo Expression (Whole Body) [1, 13]	In vivo Expression (Whole Body) [1, 14]	Encapsulation Efficiency % [2]	Encapsulation Efficiency [2]	In vitro Viability HepG2 [3, 15]	In vitro Viability HepG2 [3, 16]	MCP-I in Sera 2 hours After 0.5 MPK Injection [4]	MCP-I in Sera 24 hours After 0.5 MPK Injection [4]	ALT in Sera (IU/L) 2 hours After 0.5 MPK Injection [5]	ALT in Sera (IU/L) 24 hours After 0.5 MPK Injection [5]	AST in Sera (IU/L) 2 hours After 0.5 MPK Injection [6]	AST in Sera (IU/L) 24 hours After 0.5 MPK Injection [6]	In vitro Expression HepG2 [7, 17]	In vitro Expression HepG2 [7, 18]	In vitro Expression RAW [8, 19]	In vitro Expression RAW [8, 18]	In vitro Viability RAW [9, 20]	In vitro Viability RAW [9, 16]	PDI ([10]; LNP with cirRNA (SEQ ID NO: 1))	Size ([10]; LNP with cirRNA (SEQ ID NO: 1))	other results
CCCCCCCCC(CCCCCCCC)OC(=O)CCCCCCCN(CCCCCCCCOC(=O)C(CCCCCC)CCCCCCCC)CCCOC(=O)NCCN(C)C (centres unmarked) [Lipid 344]	7.43E+07	2.15E+09	97%	93.45%	96%	78%	7150.00 pg/mL	946.87 pg/mL	161.67 IU/L	204.33 IU/L	333.67 IU/L	340.00 IU/L	1.08E+07	8.78E+07	1.97E+06	1.59E+07	94%	88%	0.1332	98.08	PDI ([10]; LNP with mRNA (SEQ ID NO: 2)): 0.1063; Size ([10]; LNP with mRNA (SEQ ID NO: 2)): 97.82; Footpad Thickness (24 h−0 h, mm) [11]: 0.53 mm; Zeta (mV) ([12]; LNP with cirRNA (SEQ ID NO: 1)): 2.343 mV; Zeta (mV) ([12]; LNP with mRNA (SEQ ID NO: 2)): 1.967 mV
CCCCCCCCC(CCCCCCCC)OC(=O)CCCCCCCN(CCCCCCCCOC(=O)C(CCCCCC)CCCCCCCC)CCCOC(=O)NCCCN(C)C (centres unmarked) [Lipid 348]	6.47E+07	1.87E+07	98%	83.15%	65%	60%	1894.33 pg/mL	128.60 pg/mL	82.33 IU/L	96.33 IU/L	307.00 IU/L	148.00 IU/L	1.59E+06	1.45E+07	2.47E+05	2.52E+03	73%	77%	0.2546	100.8	PDI ([10]; LNP with mRNA (SEQ ID NO: 2)): 0.1488; Size ([10]; LNP with mRNA (SEQ ID NO: 2)): 101.8; Footpad Thickness (24 h−0 h, mm) [11]: 0.78 mm; Zeta (mV) ([12]; LNP with cirRNA (SEQ ID NO: 1)): 1.734 mV; Zeta (mV) ([12]; LNP with mRNA (SEQ ID NO: 2)): 8.774 mV
CCCCCCCCC(CCCCCCCC)OC(=O)CCCCCCCN(CCCCCCCCOC(=O)C(CCCCCC)CCCCCCCC)CCCOC(=O)NCCN1CCCC1 (centres unmarked) [Lipid 350]	1.03E+08	5.29E+08	97%	83.19%	95%	111%	6084.33 pg/mL	2039.50 pg/mL	105.67 IU/L	121.33 IU/L	368.00 IU/L	362.67 IU/L	1.43E+07	4.34E+07	3.38E+06	5.78E+06	74%	86%	0.1717	112.8	PDI ([10]; LNP with mRNA (SEQ ID NO: 2)): 0.1151; Size ([10]; LNP with mRNA (SEQ ID NO: 2)): 105.3; Footpad Thickness (24 h−0 h, mm) [11]: 0.55 mm; Zeta (mV) ([12]; LNP with cirRNA (SEQ ID NO: 1)): 6.91 mV; Zeta (mV) ([12]; LNP with mRNA (SEQ ID NO: 2)): 0.9211 mV
CCCCCCCCC(CCCCCCCC)OC(=O)CCCCCCCN(CCCCCCCCOC(=O)C(CCCCCC)CCCCCCCC)CCCOC(=O)NCCN1CCCCC1 (centres unmarked) [Lipid 351]	1.35E+08	1.71E+08	95%	66.39%	96%	87%	3172.67 pg/mL	1133.74 pg/mL	74.33 IU/L	149.33 IU/L	232.67 IU/L	389.33 IU/L	1.87E+06	1.00E+07	6.44E+05	3.41E+06	98%	94%	0.1705	99.16	PDI ([10]; LNP with mRNA (SEQ ID NO: 2)): 0.3512; Size ([10]; LNP with mRNA (SEQ ID NO: 2)): 178.8; Footpad Thickness (24 h−0 h, mm) [11]: 0.68 mm; Zeta (mV) ([12]; LNP with cirRNA (SEQ ID NO: 1)): −0.1951 mV; Zeta (mV) ([12]; LNP with mRNA (SEQ ID NO: 2)): −4.142 mV
CCCCCCCCC(CCCCCCCC)OC(=O)CCCCCCCN(CCCCCCCCOC(=O)C(CCCCCC)CCCCCCCC)CCCOC(=O)NCCN1CCCCCC1 (centres unmarked) [Lipid 354]	6.08E+08	7.55E+08	96%	71.30%	119%	104%	5469.33 pg/mL	1348.89 pg/mL	97.67 IU/L	192.50 IU/L	287.33 IU/L	411.00 IU/L	1.63E+06	7.47E+06	4.53E+05	1.10E+06	45%	65%	0.1505	98.03	PDI ([10]; LNP with mRNA (SEQ ID NO: 2)): 0.2144; Size ([10]; LNP with mRNA (SEQ ID NO: 2)): 128.6; Footpad Thickness (24 h−0 h, mm) [11]: 0.80 mm; Zeta (mV) ([12]; LNP with cirRNA (SEQ ID NO: 1)): −2.263 mV; Zeta (mV) ([12]; LNP with mRNA (SEQ ID NO: 2)): −0.3781 mV
